Measurements as given in patent publication US8288371B2, “Ortho pyrrolidine, benzyl-substituted heterocycle CCR1 antagonists for autoimmune diseases and inflammation” (Pharmacopeia, LLC, priority 2007, dated 2012).

Each molecule was assayed against T1, human CCR1 (Homo sapiens, UniProt P32246) (assay: CCR1 binding protocol (SPA, [125I]-MIP-1α displacement)). Settings: cell membrane expressing human CCR1, 0.1 nM [125I]-MIP-1α, 4 hours at ambient temperature; read-out: Relative potency (IC50).
T1 sequence (P32246 1-355): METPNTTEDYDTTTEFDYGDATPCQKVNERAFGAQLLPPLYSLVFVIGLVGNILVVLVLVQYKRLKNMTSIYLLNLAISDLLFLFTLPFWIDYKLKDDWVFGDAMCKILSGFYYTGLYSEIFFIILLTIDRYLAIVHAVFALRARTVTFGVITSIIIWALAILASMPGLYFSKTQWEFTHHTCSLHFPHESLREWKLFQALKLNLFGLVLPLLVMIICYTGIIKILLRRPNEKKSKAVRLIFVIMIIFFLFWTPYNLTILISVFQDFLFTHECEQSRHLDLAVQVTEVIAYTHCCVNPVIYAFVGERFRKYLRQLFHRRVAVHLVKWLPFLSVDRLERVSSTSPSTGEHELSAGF
Outline: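 Displacement of 0.1 nM [125I]-MIP-1α (final) from membranes expressing human CCR1 was measured by scintillation proximity after 4 h at ambient temperature. Conditions: pH 7.4 Tris buffer with 0.1% BSA and MnCl, and 0.5 μg membrane per well. Compounds were tested as a 10-step ½-log series from a 10 mM DMSO stock to derive IC50.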

| IC50 | Structure (SMILES) |
| --- | --- |
| 50 to 500 nM | CC[C@@H](NC(=O)N1C[C@@H](O)C[C@@H]1c1nnc(C)n1Cc1ccc(Cl)cc1)c1ccc(C)o1 [Compound 495] |
| 50 to 500 nM | CC(=O)O[C@@H]1C[C@H](c2nnc(C)n2Cc2ccc(Cl)cc2)N(C(=O)Nc2ccc(C(F)(F)F)nc2Cl)C1 [Compound 496] |
| 50 to 500 nM | Cc1nnc([C@H]2CCCN2C(=O)Cc2cccc(Cl)c2)n1Cc1ccc(Cl)cc1 [Compound 497] |
| 50 to 500 nM | Cc1nnc([C@H]2C[C@@H](O)CN2C(=O)Nc2ccc(Cl)nc2Cl)n1Cc1ccc(Cl)cc1 [Compound 498] |
| 50 to 500 nM | Cc1nnc([C@H]2C[C@H](O)CN2C(=O)Cc2cccc(C(F)(F)F)c2)n1Cc1ccc(Cl)cc1 [Compound 499] |
| 50 to 500 nM | CC(=O)O[C@@H]1C[C@H](c2nnc(C)n2Cc2ccc(Cl)cc2)N(C(=O)Nc2ccc(Cl)nc2Cl)C1 [Compound 500] |
| 50 to 500 nM | CC[C@@H](NC(=O)N1C[C@H](O)C[C@@H]1c1nnc(C)n1Cc1ccc(Cl)cc1)c1ccc(C)o1 [Compound 501] |
| 50 to 500 nM | Cc1nnc([C@H]2C[C@@H](O)CN2C(=O)Cc2cccc(C(F)(F)F)c2)n1Cc1ccc(Cl)cc1 [Compound 502] |
| 500 to 5000 nM | CC[C@@H](NC(=O)N1C[C@H](OC(C)=O)C[C@@H]1c1nnc(C)n1Cc1ccc(Cl)cc1)c1ccc(C)o1 [Compound 503] |
| 50 to 500 nM | Cc1nnc([C@H]2CCCN2C(=O)Cc2ccc(F)c(C(F)(F)F)c2)n1Cc1ccc(Cl)cc1 [Compound 504] |
| 50 to 500 nM | Cc1nnc([C@H]2CCCN2C(=O)Cc2cccc(C(F)(F)F)c2F)n1Cc1ccc(Cl)cc1 [Compound 505] |
| < 50 nM | Cc1nnc([C@H]2CC(=O)CN2C(=O)N[C@H]2CCOc3cc(C(F)(F)F)ccc32)n1Cc1ccc(Cl)cc1 [Compound 506] |
| 50 to 500 nM | Cc1nnc([C@H]2CCCN2C(=O)Cc2ccc(Cl)cc2F)n1Cc1ccc(Cl)cc1 [Compound 507] |
| 50 to 500 nM | Cc1nnc([C@H]2CCCN2C(=O)C(C)c2cccc(Cl)c2)n1Cc1ccc(Cl)cc1 (stereo partly shown) [Compound 508] |
| 50 to 500 nM | Cc1nnc([C@H]2CCCN2C(=O)Cc2cc(F)cc(C(F)(F)F)c2)n1Cc1ccc(Cl)cc1 [Compound 509] |
| < 50 nM | Cc1nnc([C@H]2CCCN2C(=O)Cc2cc(C(F)(F)F)ccc2F)n1Cc1ccc(Cl)cc1 [Compound 510] |
| < 50 nM | Cc1nnc([C@H]2CCCN2C(=O)Cc2cc(C(F)(F)F)ccc2Cl)n1Cc1ccc(Cl)cc1 [Compound 511] |
| < 50 nM | Cc1nnc([C@H]2CCCN2C(=O)N[C@H](C)c2nc3ccccc3o2)n1Cc1ccc(Cl)cc1 [Compound 513] |
| 50 to 500 nM | Cc1nnc([C@H]2CCCN2C(=O)N[C@@H](C)c2nc3ccccc3o2)n1Cc1ccc(Cl)cc1 [Compound 514] |
| < 50 nM | Cc1nnc([C@H]2CCCN2C(=O)CC2CCOc3cc(C(F)(F)F)ccc32)n1Cc1ccc(Cl)cc1 (stereo partly shown) [Compound 515] |
| 500 to 5000 nM | CC[C@H](NC(=O)N1CCC[C@@H]1c1nnc(C)n1Cc1ccc(Cl)cc1)c1nc2ccccc2o1 [Compound 516] |
| 50 to 500 nM | Cc1nc(C(F)(F)F)ccc1NC(=O)N1CC(C)(O)C[C@@H]1c1nnc(C)n1Cc1ccc(Cl)cc1 (stereo partly shown) [Compound 517] |
| < 50 nM | Cc1nnc([C@H]2CCCN2C(=O)Cc2ccc(Cl)nc2)n1Cc1ccc(Cl)cc1 [Compound 518] |
| < 50 nM | Cc1nnc([C@H]2CCCN2C(=O)Nc2ccc(C(F)(F)F)[n+]([O-])c2C)n1Cc1ccc(Cl)cc1 [Compound 519] |
| < 50 nM | Cc1cc(C)[n+]([O-])c(C)c1NC(=O)N1CCC[C@@H]1c1nnc(C)n1Cc1ccc(Cl)cc1 [Compound 520] |

| IC50 | Structure (SMILES) |
| --- | --- |
| < 50 nM | Cc1nc(C(F)(F)F)ccc1NC(=O)N1C[C@H](O)C[C@@H]1c1nnc(C)n1Cc1ccc(Cl)cc1 [Compound 521] |
| < 50 nM | Cc1nnc([C@H]2C[C@@H](O)CN2C(=O)N[C@H]2CCOc3cc(C#N)ccc32)n1Cc1ccc(Cl)cc1 [Compound 522] |
| < 50 nM | Cc1nnc([C@H]2C[C@H](O)CN2C(=O)N[C@H]2CCOc3cc(C#N)ccc32)n1Cc1ccc(Cl)cc1 [Compound 523] |
| < 50 nM | Cc1nnc([C@H]2CCCN2C(=O)Nc2ccc(C(F)(F)F)nc2Cl)n1Cc1ccc(Cl)cc1 [Compound 524] |
| 50 to 500 nM | Cc1nnc([C@H]2CC(C)(O)CN2C(=O)N[C@H]2CCOc3cc(C(F)(F)F)ccc32)n1Cc1ccc(Cl)cc1 (stereo partly shown) [Compound 526] |
| 50 to 500 nM | Cc1nnc([C@H]2CCCN2/C(=N/C#N)Nc2ccc(Cl)cc2F)n1Cc1ccc(Cl)cc1 [Compound 529] |
| 50 to 500 nM | Cc1nnc([C@H]2CCCN2c2c(N[C@H]3CCOc4cc(C(F)(F)F)ccc43)c(=O)c2=O)n1Cc1ccc(Cl)cc1 [Compound 530] |
| 50 to 500 nM | Cc1nc(C(F)(F)F)ccc1NC(=O)N1CCC[C@@H]1c1nnc(C)n1Cc1ccc(F)cc1 [Compound 531] |
| 50 to 500 nM | Cc1nnc([C@H]2CC(C)(O)CN2C(=O)Nc2ccc(Cl)cc2F)n1Cc1ccc(Cl)cc1 (stereo partly shown) [Compound 532] |
| 50 to 500 nM | Cc1nnc([C@H]2CCCN2C(=O)C(C)c2cc(C(F)(F)F)ccc2Cl)n1Cc1ccc(Cl)cc1 (stereo partly shown) [Compound 533] |
| 50 to 500 nM | Cc1nnc([C@H]2CCCN2C(=O)Nc2ccc(Cl)cc2F)n1Cc1ccc(Br)cc1 [Compound 534] |
| < 50 nM | Cc1nc(C(F)(F)F)ccc1NC(=O)N1CCC[C@@H]1c1nnc(C)n1Cc1ccc(Br)cc1 [Compound 535] |
| 500 to 5000 nM | Cc1nnc([C@H]2CCCN2c2c(Nc3ccc(Cl)cc3F)c(=O)c2=O)n1Cc1ccc(Cl)cc1 [Compound 536] |
| < 50 nM | Cc1nnc([C@H]2CCCN2C(=O)N[C@H]2CCOc3cc(C(F)(F)F)ccc32)n1Cc1ccc(Br)cc1 [Compound 537] |
| 500 to 5000 nM | Cc1nc(C(F)(F)F)ccc1NC(=O)N1CCC[C@@H]1c1nnc(C)n1Cc1cccc(Cl)c1 [Compound 538] |
| 50 to 500 nM | Cc1nc(C(F)(F)F)ccc1N/C(=N\C#N)N1CCC[C@@H]1c1nnc(C)n1Cc1ccc(Cl)cc1 [Compound 539] |
| 500 to 5000 nM | Cc1nnc([C@H]2CCCN2C(=O)N[C@H]2CCOc3cc(C(F)(F)F)ccc32)n1Cc1cccc(Br)c1 [Compound 540] |
| 50 to 500 nM | COC1C[C@H](c2nnc(C)n2Cc2ccc(Cl)cc2)N(C(=O)Nc2ccc(Cl)cc2F)C1 (stereo partly shown) [Compound 541] |
| 50 to 500 nM | COC1C[C@H](c2nnc(C)n2Cc2ccc(Cl)cc2)N(C(=O)Nc2ccc(C(F)(F)F)nc2C)C1 (stereo partly shown) [Compound 542] |
| 50 to 500 nM | COC1C[C@H](c2nnc(C)n2Cc2ccc(Cl)cc2)N(C(=O)N[C@H]2CCOc3cc(C(F)(F)F)ccc32)C1 (stereo partly shown) [Compound 543] |
| 50 to 500 nM | Cc1nc(C(F)(F)F)ccc1NC(=O)N1CC2CC2C1c1nnc(C)n1Cc1ccc(Cl)cc1 (stereo not shown) [Compound 544] |
| 50 to 500 nM | Cc1nnc(C2C3CC3CN2C(=O)Nc2ccc(Cl)cc2F)n1Cc1ccc(Cl)cc1 (stereo not shown) [Compound 545] |
| 50 to 500 nM | Cc1nnc(C2C3CC3CN2C(=O)N[C@H]2CCOc3cc(C(F)(F)F)ccc32)n1Cc1ccc(Cl)cc1 (stereo partly shown) [Compound 546] |
| 50 to 500 nM | Cc1nnc(C2C3CC3CN2C(=O)NC(c2ccccc2)c2ccccc2)n1Cc1ccc(Cl)cc1 (stereo not shown) [Compound 547] |

| Structure (SMILES) | IC50 |
| --- | --- |
| Cc1nnc([C@H]2CCCN2C(=O)Nc2ccc(C#N)c(C(F)(F)F)c2)n1Cc1ccc(Cl)cc1 [Compound 525] | 50 to 500 nM |
| Cc1c(NC(=O)N2CCC[C@@H]2c2nnc(C)n2Cc2ccc(Cl)cc2)ccc(C#N)c1C(F)(F)F [Compound 527] | < 50 nM |
| Cc1c(NC(=O)N2CCC[C@@H]2c2nnc(C)n2Cc2ccc(Cl)cc2)ccc(C#N)c1Cl [Compound 528] | < 50 nM |
